From PubChem BioAssay AID1963860 (Molecular Pharmacology Branch, DTP, NCI, 2024)

System: CN0375-F725-PDC KRAS spheroid viability
Assay: Anticancer human tumor CN0375-F725-PDC patient-derived colon carcinoma cell line growth inhibition [KRAS2]
Conditions: spheroids with HUVEC and MSC; for IC50: curve of first compound; for viability, T/C: stronger effect = lower value
How it was run: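 KRAS-mutant tumor cells were grown as spheroids with HUVEC endothelial cells and human MSCs as stroma. Targeted agents were tested alone and with KRAS pathway inhibitors. Doses started at or near clinical Cmax, or 10 microM, descending half-log.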

[1] = second compound 0.1 µM, first compound 0.0316 µM
[2] = second compound 0.316 µM, first compound 0.0316 µM
[3] = second compound 1 µM, first compound 0.0316 µM
[4] = second compound 3.16 µM, first compound 0.0316 µM
[5] = second compound 10 µM, first compound 0.0316 µM
[6] = second compound 0.1 µM, first compound 0.1 µM
[7] = second compound 0.1 µM, first compound 0.316 µM
[8] = second compound 0.1 µM, first compound 1 µM
[9] = second compound 0.1 µM, first compound 3.16 µM
[10] = second compound 0.1 µM, first compound 10 µM
[11] = second compound 0.316 µM, first compound 0.1 µM
[12] = second compound 0.316 µM, first compound 0.316 µM
[13] = second compound 0.316 µM, first compound 1 µM
[14] = second compound 0.316 µM, first compound 3.16 µM
[15] = second compound 0.316 µM, first compound 10 µM
[16] = second compound 1 µM, first compound 0.1 µM
[17] = second compound 1 µM, first compound 0.316 µM
[18] = second compound 1 µM, first compound 1 µM
[19] = second compound 1 µM, first compound 3.16 µM
[20] = second compound 1 µM, first compound 10 µM
[21] = second compound 3.16 µM, first compound 0.1 µM
[22] = second compound 3.16 µM, first compound 0.316 µM
[23] = second compound 3.16 µM, first compound 1 µM
[24] = second compound 3.16 µM, first compound 3.16 µM
[25] = second compound 3.16 µM, first compound 10 µM
[26] = second compound 10 µM, first compound 0.1 µM
[27] = second compound 10 µM, first compound 0.316 µM
[28] = second compound 10 µM, first compound 1 µM
[29] = second compound 10 µM, first compound 3.16 µM
[30] = second compound 10 µM, first compound 10 µM
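Note: spheroids exposed to agents for 7 days.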

CC(=O)Nc1cccc(-n2c(=O)n(C3CC3)c(=O)c3c(Nc4ccc(I)cc4F)n(C)c(=O)c(C)c32)c1 + CNCc1ccccc1-c1csc(C(C)Nc2nc(C)nc3cc(OC)c(OC)cc23)c1
IC50 (second compound 0.1 µM): 0.00338 µM
IC50 (second compound 0.316 µM): 0.0019 µM
IC50 (second compound 1 µM): < 0.0001 µM
IC50 (second compound 3.16 µM): < 0.0001 µM
IC50 (second compound 10 µM): < 0.0001 µM
viability, T/C (second compound 0.1 µM, first compound 0.0001 µM): 89.5%
viability, T/C (second compound 0.1 µM, first compound 0.000316 µM): 78%
viability, T/C (second compound 0.1 µM, first compound 0.001 µM): 59.4%
viability, T/C (second compound 0.1 µM, first compound 0.00316 µM): 51%
viability, T/C (second compound 0.1 µM, first compound 0.01 µM): 42.3%
viability, T/C [1]: 30.2%
viability, T/C (second compound 0.316 µM, first compound 0.0001 µM): 83.9%
viability, T/C (second compound 0.316 µM, first compound 0.000316 µM): 70.9%
viability, T/C (second compound 0.316 µM, first compound 0.001 µM): 56.4%
viability, T/C (second compound 0.316 µM, first compound 0.00316 µM): 42.7%
viability, T/C (second compound 0.316 µM, first compound 0.01 µM): 37.9%
viability, T/C [2]: 26.6%
viability, T/C (second compound 1 µM, first compound 0.0001 µM): 45.4%
viability, T/C (second compound 1 µM, first compound 0.000316 µM): 36.8%
viability, T/C (second compound 1 µM, first compound 0.001 µM): 13.3%
viability, T/C (second compound 1 µM, first compound 0.00316 µM): 18.2%
viability, T/C (second compound 1 µM, first compound 0.01 µM): 11.4%
viability, T/C [3]: 3.9%
viability, T/C (second compound 3.16 µM, first compound 0.0001 µM): 1.63%
viability, T/C (second compound 3.16 µM, first compound 0.000316 µM): 0.39%
viability, T/C (second compound 3.16 µM, first compound 0.001 µM): 0.3%
viability, T/C (second compound 3.16 µM, first compound 0.00316 µM): 0.37%
viability, T/C (second compound 3.16 µM, first compound 0.01 µM): 0.23%
viability, T/C [4]: 0.73%
viability, T/C (second compound 10 µM, first compound 0.0001 µM): 0.67%
viability, T/C (second compound 10 µM, first compound 0.000316 µM): 0.27%
viability, T/C (second compound 10 µM, first compound 0.001 µM): 0.26%
viability, T/C (second compound 10 µM, first compound 0.00316 µM): 0.37%
viability, T/C (second compound 10 µM, first compound 0.01 µM): 0.36%
viability, T/C [5]: 0.25%

Cn1nccc1Nc1nccc(-c2cc3c(s2)C(C)(C)N(CCN2CCOCC2)C3=O)n1 + C=CC(=O)N1CCN(c2nc(=O)n(-c3c(C)ccnc3C(C)C)c3nc(-c4c(O)cccc4F)c(F)cc23)C(C)C1
IC50 (second compound 0.1 µM): 6.96 µM
IC50 (second compound 0.316 µM): 5.32 µM
IC50 (second compound 1 µM): > 10 µM
IC50 (second compound 3.16 µM): 2.34 µM
IC50 (second compound 10 µM): 0.674 µM
viability, T/C [1]: 117%
viability, T/C [6]: 88%
viability, T/C [7]: 70.1%
viability, T/C [8]: 70.6%
viability, T/C [9]: 55.5%
viability, T/C [10]: 45.3%
viability, T/C [2]: 120%
viability, T/C [11]: 93.9%
viability, T/C [12]: 64.3%
viability, T/C [13]: 63.8%
viability, T/C [14]: 54.3%
viability, T/C [15]: 45%
viability, T/C [3]: 119%
viability, T/C [16]: 99.3%
viability, T/C [17]: 66%
viability, T/C [18]: 61.2%
viability, T/C [19]: 54.9%
viability, T/C [20]: 46.1%
viability, T/C [4]: 120%
viability, T/C [21]: 105%
viability, T/C [22]: 67.8%
viability, T/C [23]: 60.3%
viability, T/C [24]: 50.2%
viability, T/C [25]: 42.4%
viability, T/C [5]: 103%
viability, T/C [26]: 101%
viability, T/C [27]: 61.7%
viability, T/C [28]: 48.8%
viability, T/C [29]: 45.4%
viability, T/C [30]: 32.2%

O=C(c1cc(Cc2n[nH]c(=O)c3ccccc23)ccc1F)N1CCN(C(=O)C2CC2)CC1 + C=CC(=O)N1CCN(c2nc(=O)n(-c3c(C)ccnc3C(C)C)c3nc(-c4c(O)cccc4F)c(F)cc23)C(C)C1
IC50 (second compound 0.1 µM): > 10 µM
IC50 (second compound 0.316 µM): > 10 µM
IC50 (second compound 1 µM): > 10 µM
IC50 (second compound 3.16 µM): > 10 µM
IC50 (second compound 10 µM): > 10 µM
viability, T/C [1]: 107%
viability, T/C [6]: 107%
viability, T/C [7]: 99.6%
viability, T/C [8]: 100%
viability, T/C [9]: 99.8%
viability, T/C [10]: 93.9%
viability, T/C [2]: 109%
viability, T/C [11]: 102%
viability, T/C [12]: 102%
viability, T/C [13]: 103%
viability, T/C [14]: 101%
viability, T/C [15]: 92.3%
viability, T/C [3]: 109%
viability, T/C [16]: 113%
viability, T/C [17]: 106%
viability, T/C [18]: 99.2%
viability, T/C [19]: 102%
viability, T/C [20]: 91.1%
viability, T/C [4]: 105%
viability, T/C [21]: 111%
viability, T/C [22]: 106%
viability, T/C [23]: 99.7%
viability, T/C [24]: 99.6%
viability, T/C [25]: 97.2%
viability, T/C [5]: 97.9%
viability, T/C [26]: 100%
viability, T/C [27]: 94.2%
viability, T/C [28]: 94.5%
viability, T/C [29]: 96.4%
viability, T/C [30]: 85.2%

CC1OCC2(CCN(c3cnc(Sc4ccnc(N)c4Cl)c(N)n3)CC2)C1N (stereo not given) + C=CC(=O)N1CCN(c2nc(OCC3CCCN3C)nc3c2CCN(c2cccc4cccc(C)c24)C3)CC1CC#N
IC50 (second compound 0.0316 µM): > 10 µM
IC50 (second compound 0.1 µM): > 10 µM
IC50 (second compound 0.316 µM): > 10 µM
IC50 (second compound 1 µM): 8.24 µM
IC50 (second compound 3.16 µM): < 0.0316 µM
viability, T/C (second compound 0.0316 µM, first compound 0.0316 µM): 99.2%
viability, T/C (second compound 0.0316 µM, first compound 0.1 µM): 90.6%
viability, T/C (second compound 0.0316 µM, first compound 0.316 µM): 77.1%
viability, T/C (second compound 0.0316 µM, first compound 1 µM): 81.9%
viability, T/C (second compound 0.0316 µM, first compound 3.16 µM): 79.7%
viability, T/C (second compound 0.0316 µM, first compound 10 µM): 63.7%
viability, T/C [1]: 102%
viability, T/C [6]: 90.9%
viability, T/C [7]: 77.7%
viability, T/C [8]: 80%
viability, T/C [9]: 74.4%
viability, T/C [10]: 62.9%
viability, T/C [2]: 102%
viability, T/C [11]: 89.9%
viability, T/C [12]: 81.8%
viability, T/C [13]: 78.3%
viability, T/C [14]: 71.4%
viability, T/C [15]: 60.4%
viability, T/C [3]: 83.2%
viability, T/C [16]: 86%
viability, T/C [17]: 73.5%
viability, T/C [18]: 61.8%
viability, T/C [19]: 64.2%
viability, T/C [20]: 46.5%
viability, T/C [4]: 30.2%
viability, T/C [21]: 18.2%
viability, T/C [22]: 14.2%
viability, T/C [23]: 13%
viability, T/C [24]: 13.2%
viability, T/C [25]: 9.43%
